# Test results: article PMC10704437, “Sterol-activated amyloid beta fibril formation” (The Journal of Biological Chemistry, 2023)
# What was measured:
# Aβ42 monomer = molecular target: T1, Aβ42 monomer (Homo sapiens, UniProt P05067); test: Sterol binding to Aβ42, equilibrium DHE fluorescence titrations; settings: direct Aβ42 titration of DHE fluorescence; single-binding-site fit; K2PO4 50 mM, pH 7.4, 25 °C; read-out: Kd
# T1 construct: Small red spheres mark the Aβ42 peptide C-terminal residue, A42; purchased Sigma-Aldrich Corp
# T1 sequence (P05067 672-713 limits assumed): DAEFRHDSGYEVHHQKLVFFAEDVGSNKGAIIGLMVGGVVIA
# Description: CH ([27]) and CS ([28]) increase the rate of Aβ aggregation and CH is thought to stabilize fibrils ([29]); yet, the affinities of CH and its metabolites for the Aβ peptide monomer have not been determined. Here, CH and CS affinities for the Aβ42 monomer are established using dehydroergosterol (DHE)—a fluorescent CH analog ([30]) used as a competitive probe to determine CH and CS affinities. Aβ42 monomers were prepared as previously described ([31]) (see Methods). […] Under this condition, Aβ42 essentially quantitatively binds DHE until its concentration exceeds that of DHE, which results in a breakpoint in the titration curve that yields the stoichiometry. The arrow seen descending from the breakpoint indicates a stoichiometry of 1:1, which agrees well with the ∼1:1 CH-metabolite:Aβ stoichiometry estimated from analysis of senile plaques micro-dissected from AD-patient brain tissue ([15]).
# Figure 1 Sterol binding to Aβ42at equilibrium.A, DHE affinity for monomeric Aβ4_2. […] Binding was detected via the binding-induced 4.4 (±0.2)-fold increase in DHE fluorescence (λex = 325 nm, λem= 375 nm). Fluorescence intensity, I, is plotted relative to the intensity at zero titrant, I0. Titrations were performed independently in triplicate and the line passing through the data is the least-squares fit to a single-binding-site model. B, Aβ42:DHE stoichiometry. […] C. DHE fluorescence (λex = 325 nm, λem = 375 nm) is plotted versus [Aβ42]/[DHE]. The line descending from the titration breakpoint indicates a stoichiometry of 1:1. C and D, CH and CS affinities. Affinities were determined by competitive binding versus DHE. […] C, was titrated with CH (5.0–500 nM, 0.05–5 × Kd) or CS (5.0–500 nM, 0.15–[…] × Kd). Binding was monitored via the decrease in DHE fluorescence (λex = 325, λem = 375) caused by DHE displacement from Aβ42. Controls ensured that <2.0% of Aβ42 oligomerized during the measurement. Titrations were performed in triplicate and averaged. The solid lines through the data represent least-squares fits to a competitive single-binding-site model. C and D, insets highlight the behavior of the titration over ligand concentrations that span their reported CMCs (indicated by arrows). […]
# DHE/Aβ42 binding interactions were monitored via the binding-induced 4.4-fold change in DHE fluorescence (λex = 325 nm, λem= 375 nm). […]
# The affinities of CH and CS for Aβ42 were determined in competitive binding studies versus DHE. Binding was detected via the fluorescence decrease (λex= 325 nm, λem = 375 nm) caused by DHE displacement. […] Imax = (fraction DHE-bound to peptide at zero competitive ligands)/4.4 — the fold fluorescence change associated with DHE dissociation, see Figure 1A.
# Aβ42 = molecular target: T2, Aβ42 (Homo sapiens, UniProt P05067); test: Sterol binding to Aβ42, pre-steady-state stopped-flow fluorescence
# T2 construct: Small red spheres mark the Aβ42 peptide C-terminal residue, A42; purchased Sigma-Aldrich Corp
# T2 sequence (P05067 672-713 limits assumed): as above
# Description: To establish the rates at which Aβ42•ligand complexes form and dissociate, the rate constants governing the binding reactions were determined. DHE binding was monitored in real time using a stopped-flow fluorimeter via binding-induced changes in DHE fluorescence. The reactions are pseudo first order in [ligand] and kobs was obtained by least-squares fitting progress curves to a single-exponential equation ([44], [45]). kobs values were determined (in triplicate) at a series of Aβ42 concentrations and the averaged values are plotted versus [Aβ42] in Figure 2B. kon and koff are given by the slope and intercept of the kobs-versus-[Aβ42] plot obtained by linear least-square fitting ([44], [45]). […] The rate constants are compiled in Table 1.
# Figure 2 Sterol binding to Aβ42—pre-steady state studies.A, DHE binding. Reactions were monitored via binding induced changes in DHE fluorescence using a stopped-flow fluorimeter (λex = 325, λem > 400 nm). Fluorescence intensity, I, is reported relative to the intensity in the absence of ligand, Io. […] C was rapidly mixed (1:1, v/v) with a solution identical except that Aβ42 was replaced by DHE (40 nM, 2.7 × Kd). The bindingreaction curve shown is the average of five independent progress curves. The averaged curve was a least-squares fit to a single-exponential equation and the resulting best fit (indicated by the red line) yielded kobs. B, DHE kon and koff. kobs values obtained as in Panel A were determined in triplicate at varying Aβ42 concentrations and the averaged values are shown plotted versus [Aβ42]. kon and koff are given by the slope and intercept of a linear least-squares fit of the kobsversus [Aβ42] plot. C and D, CH and CS displacement reactions.
# Pre-steady-state binding of sterols to Aβ42 was monitored via the binding-induced change in DHE fluorescence (λex = 325, λem > 400 nm) using an Applied Photophysics SX20 stopped-flow fluorimeter.
# Three progress curves (each an average of five independently obtained curves) were collected at five separate Aꞵ42 concentrations. The observed rate constant (kobs) at a given [Aβ42] was obtained by fitting the average of the three curves to a single-exponential equation using Pro-K software ([75]). kon and koff were obtained from the slopes and intercepts predicted by linear least-squares analysis of kobs versus [Aβ42] plots.
# C. […] Progress curves were determined in triplicate and koff was obtained by least-squares fitting the averaged curves to a single-exponential equation using Pro-K.
smiles,measurement,setting,value
"CC(C)[C@@H](C)/C=C/[C@@H](C)[C@H]1CC[C@H]2C3=CC=C4C[C@@H](O)CC[C@]4(C)C3=CC[C@]12C [DHE, dehydroergosterol, reference compound]",Kd,Aβ42 monomer,16 nM
same,koff,"Aβ42; intercept of kobs versus [Aβ42] plot, stopped-flow, pH 7.4, 25 °C",1 s⁻¹
same,Kd,"Aβ42; ratio of rate constants, read-out: koff/kon",17 nM
same,kon,"Aβ42; slope of kobs versus [Aβ42] plot, stopped-flow, pH 7.4, 25 °C",6e+07 M⁻¹ s⁻¹
